Data from PMC9782626, “Copper(II) Complexes of 5–Fluoro–Salicylaldehyde: Synthesis, Characterization, Antioxidant Properties, Interaction with DNA and Serum Albumins” (Molecules, 2022).

Key:
[1] = tested on: EB–DNA conjugate (CT DNA); assay: EB-displacement studies (fluorescence of EB-DNA conjugate); type: binding, calf; settings: for Stern–Volmer constant Ksv (EB–DNA) / ΔΙ/Ιο, percentage of EB–DNA fluorescence quenching: [EB] = 20 µM, [DNA] = 26 µM; for ΔΙ/Ιο, percentage of EB–DNA fluorescence quenching: 592 nm; for EB–DNA quenching constant kq: from KSV with τo = 23 ns; for EB–DNA relative fluorescence emission intensity I/Io remaining (% of initial): λemission = 592 nm, final value, r up to 0.36
Excerpt: EB is a well-known indicator of DNA intercalation, since its insertion in-between adjacent DNA base pairs may lead to the development of effective π–π stacking interactions. A solution containing the EB–DNA adduct presents an intense fluorescence emission band at 592 nm when excited at λex = 540 nm. The addition of a compound intercalating to DNA equally or more tightly than EB into this solution may induce changes to the emission band which are monitored, in order to gain insight into its competition with EB for the DNA intercalation site.
The fluorescence emission spectra of pretreated EB–DNA ([EB] = 20 µM, [DNA] = 26 µM) were recorded in the presence of increasing amounts of the complexes (representatively shown for complex 1 in Figure 6A).
The Stern–Volmer (KSV) constants (Table 6) of the complexes were calculated with the Stern–Volmer equation (Equation (S2)) and Stern–Volmer plots. The KSV values are relatively high (of the […] magnitude), indicating a tight binding to CT DNA. […] The EB–DNA quenching constants (kq) of the compounds (Table 6) were calculated with Equation (S3) (considering τo = 23 ns as the EB–DNA fluorescence lifetime); the kq values are higher than 10^10 M^−1 s^−1 [56], proposing the existence of a static quenching mechanism, which may confirm the interaction with the fluorophore and the displacement of EB. […]
S2Binding studies with CT DNA […]
S2.3 EB -displa cement studie s
The competition of the complexes with EB was investigated by fluorescence emission spectroscopy in order to examine whether the compounds can displace EB from its DNA-EB conjugate. The CT DNA-EB complex was formed by pre-treating 20 μM EB and 26 μM CT DNA in buffer (150 mM NaCl and 15 mM trisodium citrate at pH = 7.0).
The possible displacement of EB by the compounds and su bseq uently t he ir intercalating effect was studied by the stepwise addition of a certain amount of the solution of each […]
compound into the solution of the CT DNA-EB adduct. The solut ions were excited at 540 nm and the emission was monitored from 550-700 nm with λmax= 592- 595 nm and the effe ct of the addition of each compound to the CT-DNA EB solution was recorded. The […]
solution or in the presence of CT DNA or EB under the same experimental conditions (λ ex = 540 nm); therefore, the observed quenching of the EB-DNA solution may be attributed to the displacement of EB from its EB -DNA add uct.
The Stern-Volmer constants (KSV, in M -1) were calculated according by the linear Stern-Volmer equation (eq. S2) [S 4] and the respect ive plots Io/I versus [ compound].
Io =1+ k τ [Q] =1+ K [Q] (eq. S2) […]
where Io and I are the emission intensit ies of the EB-DNA solut ion in the absence and the presence of the compounds , respectively, τo= the average lifetime of the emitting system without the quencher and kq = the quenching constant. Taking τo = 23 ns as the fluorescence lifetime of the EB-DNA adduct [S5], the quenching co nstants (k q, in M -1s-1) of the compounds were calculated according to eq. S3 [S 4]:
S3Albumin -binding studies
In order to investigate if the compounds can bind to carrier proteins like serum albumins, we carried out albumin binding study by tryptophan fluorescence quenching experiments using bo vine serum albumin (BSA, 3 μM) in buffer (containing 15 mM trisodium citrate and 150 mM NaCl at pH 7.0). The quenching of the emission intensity of tryptophan residues of BSA at 343 nm was monitored using the co mpounds as que ncher s with increasing concentration [S4]. The fluo rescence emission spectra of the compounds were also recorded with λex = 295 nm. No fluorescence emission band was recorded and thus it was not related to the compounds . The influence of the inner-filter effect [S6] on the measurements wa s evaluated by equation S4.
Where Icorr = corrected intensity, Imeas = the measured intensity, c = the concentration of the quencher, d = the cuvette (1 cm), ε (λexc ) and ε(λe m) = the ε of the quencher at the excitation […]

CT DNA = assay: Binding study with CT DNA by UV-vis spectroscopy; parameters: species or system calf
Experimental: Initially, the UV–vis spectra of complexes 1–5 (2.5 × 10^−5 – 1 × 10^−4 M) were recorded in the presence of incremental amounts of CT DNA (Figure 4), and the changes of the λmax of the bands observed in the spectra of the complexes were monitored as a means to study the interaction between complexes and CT DNA [50] and to calculate the corresponding DNA-binding constants (Kb). As observed, in the UV–vis spectra of the complexes, at least two bands were observed: band I in the range 314–339 nm and band II in the region 380–428 nm. […] These features indicate the interaction of the complexes with CT DNA [51], but may not provide sufficient information to reveal the possible interaction mode. Therefore, for the elucidation of the CT DNA interaction mode, further experiments involving DNA-viscosity measurements and competitive studies with EB were performed. […]
S2Binding studies with CT DNA
The interaction of the compounds with CT DNA was studied by UV-vis spectroscopy, viscosity measurements a nd via competit ive stud ie s with EB by fl uorescence […]
S2.1 Binding study with CT DNA by UV -vis spectroscopy
The interaction of the compounds with CT DNA has been studied by UV-vis spectroscopy in order to investigate the possible binding modes to CT DNA and to calculate the DNA-binding constants (Kb). The Kb constants (in M-1) were determined by the Wolfe-Shimer equation (eq. S1) [S3] and the plots [DNA]/(εA-εf) versus [DNA] using the UV-vis spectra of the compounds (20 -100 μM) recorded for a constant concentration with increasing concentrations of CT DNA for diverse [complex]/[DNA] mixing ratios (= r ).
Control experiments with DMSO were performed and no changes in the spectra of CT DNA were observed. […]
[DNA] = [DNA] + 1 (eq. S1) […]
where [DNA] is the concentration of DNA in base pa irs, εA = Aobsd/[compound ], εf = the extinction coefficient for the free compound and ε b = the extinction coefficient for the compound in the fully bound form. Kb is given by the ratio of slope to the y intercept in plots [DNA]/(εA-εf) versus[DNA]. […]

Solubility in solvents = type: physicochemical
[2] = first UV band listed in the cell (295–334 nm)
[3] = second UV band listed in the cell (330–421 nm)

| Compound | Stern–Volmer constant Ksv (EB–DNA) [1] | ΔΙ/Ιο, percentage of EB–DNA fluorescence quenching [1] [%] | EB–DNA quenching constant kq [1] | EB–DNA relative fluorescence emission intensity I/Io remaining (% of initial) [1] [%] | ΔA/Aο, percentage of hyper-/hypo-chromism upon addition of CT DNA (CT DNA; [2]) [%] | ΔA/Aο, percentage of hyper-/hypo-chromism upon addition of CT DNA (CT DNA; [3]) | Solubility in DMSO and DMF (Solubility in solvents) | Solubility in MeOH (Solubility in solvents) | ΔA/Aο, percentage of hyper-/hypo-chromism upon addition of CT DNA (CT DNA; third UV band listed in the cell (405 nm)) |
| --- | --- | --- | --- | --- | --- | --- | --- | --- | --- |
| CO.Cc1ccc2ccc3ccc(C)nc3c2n1.O=Cc1cc(F)ccc1[O-].[Cl-].[Cu+2] [Complex 3, [Cu(5–F–salo)(neoc)Cl].CH3OH] | 3.35 (±0.05) × 10^4 M^−1 | 49.1 | 1.46 (±0.02) × 10^12 M^−1 s^−1 | 50.9 | −41 | +34% | soluble | partially soluble | – |
| O=Cc1cc(F)ccc1[O-].O=[N+]([O-])[O-].[Cu+2].c1ccc(-c2ccccn2)nc1 [Complex 5, [Cu(5–F–salo)(bipy)(NO3)]] | 3.14 (±0.06) × 10^4 M^−1 | – | 1.36 (±0.03) × 10^12 M^−1 s^−1 | – | −72 | −28% | – | – | – |
| O=Cc1cc(F)ccc1[O-].[Cl-].[Cu+2].c1ccc(Nc2ccccn2)nc1 [Complex 2, [Cu(5–F–salo)(bipyam)Cl]] | 6.23 (±0.11) × 10^4 M^−1 | 44.5 | 2.71 (±0.05) × 10^12 M^−1 s^−1 | 55.5 | −12 | > +50% | soluble | partially soluble | – |
| O=Cc1cc(F)ccc1[O-].O=Cc1cc(F)ccc1[O-].[Cu+2] [Complex 1, [Cu(5–F–salo)2]] | 1.56 (±0.02) × 10^5 M^−1 | 44.8 | 6.78 (±0.09) × 10^12 M^−1 s^−1 | 55.2 | −34 | −20% | soluble | – | – |
| O=Cc1cc(F)ccc1[O-].O=[N+]([O-])[O-].[Cu+2].c1cnc2c(c1)ccc1cccnc12 [Complex 4, [Cu(5–F–salo)(phen)(NO3)]] | 6.77 (±0.07) × 10^4 M^−1 | 48.4 | 2.94 (±0.03) × 10^12 M^−1 s^−1 | 51.6 | −38 | −29% | soluble | – | +44% |
